Results taken from patent US9150845B2, “Lyase enzymes, nucleic acids encoding them and methods for making and using them” (BASF ENZYMES LLC, priority 2005, dated 2015).

B1: SEQ ID NO:2: polypeptide encoded by SEQ ID NO:1, initially isolated from Tannerella forsythensis ATCC 43037 (protein)
chain: MEKTVTYQSEKGFSIHDVERLLLGQSHLKLSAESLQKVERCFIFLREFSTDKVIYGINTGFGPMAQYRVDDNCLKQLQYNIIRSHSTGAGEPLDPIYVKAAMIARLSTFLQGYSGIHTDLVRLLTEFINRDICPFIPEHGSVGASGDLVQLAHIALTLIGEGEVFYEGKRRPTAEVMQKEKLSPLDIYIREGLSATNGTSVMTGIGLVNLIYAKRLLHWSIAASVMMNEIASSYDDLMSPGLNATKRHEGQQEIARAMCRWAAGSKAMRKREIEMFQRHTEKVFGHKVQAYYSLRCVPQILGPIWDTMAYAEKVLVDELNSACDNPIVDPEAQYVYHGGNFHGDYISFEMDKLKIAVTKMTMLAERQLNYLFHNRINDDILPPFVNLGVLGLNYGLQAAQFTATSTTAECQTLSNPMYIHSIPNNNDNQDIVSMGANAALMAKTVIENGYQVMAIHFMALVQAVDYLKLQPRMAEKTRAVYDEIRAFFPVFTDDTPKYREIETMITYLKSSGKRI
modifications: Tannerella forsythensis ATCC 43037; DOMAIN (4)...(493): Phenylalanine and histidine ammonia-lyase
B2: SEQ ID NO:236: polypeptide encoded by SEQ ID NO:235, initially isolated from Pseudomonas fluorescens PfO-1 (protein)
chain: MITIRGEGLTIAQIAAVARGAPVRMTDDEAVLARVRASRQRIVEALESGQQIYGVTTLYGGMADRVVPADRLEALQRVSLWHHKVGAGPRLPVPDVRAAMLLRANSLLKGASGVRVELVERYVAFLNAGATPHVYQRGSIGASGDLSPLAYIGAAVIGLDRAWLVDLGEETLDCLTVLRRLGLEPMILQPKEGLALCNGTAASTGVAANCIERAFALTALALGTHALYFQALDATTQSFEPFVHALKPHPGQVWTAREMAALLDGSGLVRSEAAGDRAHRRGGLIQDRYSLRCMPQFVGPIVDGLAEAARQIEIEANSANDNPLIDPETGEVFHTGNFLAEYTAVAMDRLRYHLGMLAKHLDTQIALLVAPEFSRGLSPSLAGNLEPGLNVGLKSLQISCNSLMPLLTFYGQSMADRFPTHAEQFNQNINSQAMNGANLARDSVEVLAHFMANALVFAVQAVELRAWLVAGTYDASEVLSPATRPLYAAARAAAAGPPGPHRPLVWNDTDGFLEDKVRGVMSSILEGGAVPEAVAPVRERLRAHRG
modifications: Obtained from environmental sample; DOMAIN (1)...(492): Phenylalanine and histidine ammonia-lyase; SITE (140)...(156): Phenylalanine and histidine ammonia-lyases signature. Prosite id = PS00488; SITE (201)...(204): N-glycosylation site. Prosite id = PS00001; SITE (514)...(517): N-glycosylat

How the values were obtained:
DH5α host = test: Ammonia selection (growth with amino acid substrate, host + vector); assay type: cell-based; conditions: substrate tested
Excerpt: (§1) An exemplary activity-based discovery protocol comprises use of an ammonia selection using α-methylPhe to screen environmental libraries. […] A phenylalanine selection screen was also implemented to screen libraries, e.g., environmental libraries—which yielded, inter alia, chorismate mutases (CM), which complement a PheA mutation in the auxotroph screening host. An adamantyl phosphonate, an inhibitor of CM activity, also was used to determine whether can minimize background CM activity in this selection/screening protocol.

chorismate mutases (CM) = test: Phenylalanine selection screen: suppression of background chorismate mutase activity; assay type: cell-based; conditions: PheA auxotroph screening host
Excerpt: as §1

[1] = Activity assignment of exemplary polypeptides (Table 1, assays of Examples 1, 2 and 3); assay type: biochemical; conditions: Table 1 (FIG. 8)
Excerpt: Table 1, presented as FIG. 8, details an exemplary activity determined for each exemplary polypeptide of the invention (and, also notes one exemplary nucleic acid of the invention that encodes the exemplary polypeptide; as determined by the assays described in Examples 1, 2 and 3, below. Table 1 also sets forth the source organism from which the polynucleotide was isolated (where “unknown” means that the source was an environmental sample), the GenBank accession number of the top BLAST hit, the organism from which the top BLAST hit was isolated, the percent sequence identity between the polypeptide of the invention and the top BLAST hit, the activity assigned to the top BLAST hit, and notes for that particular polynucleotide/polypeptide entry. […]
HAL enzyme activity can be determined as described in Baedeker & Schulz (Eur. J. Biochem 2002, 269, 1790-1797), wherein enzyme activity was determined as the rate of urocanate formation, measured spectrophotometrically at 277 nm. […] The reaction was started by adding 200 μL of 0.5 M histidine solution and then monitored for approximately 5 minutes.
In one aspect, PAL enzyme activity can be determined as described in Rother & Retey (Eur. J. Biochem, 2002, 269, 3065-3075), by following the formation of E-cinnamate spectrophotometrically at 30° C. at 290 nm. […] Kinetic constants were determined using a double reciprocal plot. […]

Row | Molecule | background growth with negative control (host+empty vector) (DH5α host) | other results
1 | N[C@@H](Cc1ccccc1Br)C(=O)O [2-BromoPhe, 2-Bromo-L-phenylalanine] | background growth | –
2 | adamantyl phosphonate | – | inhibition of background CM activity in selection/screening protocol (chorismate mutases (CM)): lack of potency
3 | N[C@@H](Cc1ccccc1Cl)C(=O)O [2-ChloroPhe, 2-Chloro-L-phenylalanine] | background growth | –
4 | C[C@](N)(Cc1ccccc1)C(=O)O [α-methylPhe, α-methylphenylalanine] | no background growth | –
5 | N[C@@H](Cc1ccccc1)C(=O)O [Phe, phenylalanine] | background growth | –
6 | B1 | – | exemplary activity determined for the polypeptide [1]: TAL and PAL activity
7 | B2 | – | exemplary activity determined for the polypeptide [1]: esterase activity
